We go through 5 compounds from patent US20260176320A1, “MODULATORS OF G-PROTEIN COUPLED RECEPTORS” (priority 2018, published 2026).

The structures appear in SMILES notation. Where two headings read alike, the source gives them in different places.

Holding throughout (type): cell-based
The target of one assay is T1, GIP-R (Homo sapiens, UniProt P48546).
T1 sequence (P48546 22-466): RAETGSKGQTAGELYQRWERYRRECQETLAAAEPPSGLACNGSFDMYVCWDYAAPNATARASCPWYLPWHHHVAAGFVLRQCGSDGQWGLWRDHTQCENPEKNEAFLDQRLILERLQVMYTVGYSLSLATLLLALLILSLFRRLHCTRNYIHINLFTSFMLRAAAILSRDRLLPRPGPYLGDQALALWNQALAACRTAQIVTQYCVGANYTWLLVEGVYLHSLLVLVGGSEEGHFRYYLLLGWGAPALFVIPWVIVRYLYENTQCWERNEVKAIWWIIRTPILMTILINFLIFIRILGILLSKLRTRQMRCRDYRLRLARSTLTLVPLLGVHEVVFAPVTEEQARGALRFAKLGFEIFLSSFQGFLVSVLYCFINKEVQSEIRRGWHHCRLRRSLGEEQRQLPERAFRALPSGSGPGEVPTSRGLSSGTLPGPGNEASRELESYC
Kind of assay: HitHunter cAMP assay (GIP-R). The note with it: cAMP; for EC50: EC50 GIP-R/nM; for Emax: read-out: (Emax) GIP-R. The method, boiled down: (§1)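 cAMP, luminescence read: agonist 22-pt 2× dilution in DMSO, duplicate, 30 min RT on 10,000 cells/well in 1×HBSS/10 mM HEPES/625 μM IBMX/0.2% BSA; anti-cAMP reagent 1 h RT dark, then O/N RT dark before read.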
A general note: Cyclic AMP is a second messenger, typically raised through Gs and lowered through Gi signalling.

For assay [1], the target named is T2, GLP-1R (Homo sapiens, UniProt P43220). The experiment in a line: HitHunter cAMP assay (GLP-1R). The note with it: cAMP; for EC50: EC50 GLP-1R/nM; for Emax: read-out: (Emax) GLP-1R. The method, boiled down:
as §1

Assay [2] concerns the target T2, GLP-1R. Kind of assay: PathHunter β-arrestin assay. Summed up:
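Luminescence read-out of β-arrestin recruitment (enzyme-fragment complementation detection, 3 h at room temperature in the dark) after 90 min agonist stimulation at 37 °C. Agonists tested as 22-point 2× serial dilutions in duplicate, in medium containing 0.2% BSA.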

T2 sequence (P43220 24-463): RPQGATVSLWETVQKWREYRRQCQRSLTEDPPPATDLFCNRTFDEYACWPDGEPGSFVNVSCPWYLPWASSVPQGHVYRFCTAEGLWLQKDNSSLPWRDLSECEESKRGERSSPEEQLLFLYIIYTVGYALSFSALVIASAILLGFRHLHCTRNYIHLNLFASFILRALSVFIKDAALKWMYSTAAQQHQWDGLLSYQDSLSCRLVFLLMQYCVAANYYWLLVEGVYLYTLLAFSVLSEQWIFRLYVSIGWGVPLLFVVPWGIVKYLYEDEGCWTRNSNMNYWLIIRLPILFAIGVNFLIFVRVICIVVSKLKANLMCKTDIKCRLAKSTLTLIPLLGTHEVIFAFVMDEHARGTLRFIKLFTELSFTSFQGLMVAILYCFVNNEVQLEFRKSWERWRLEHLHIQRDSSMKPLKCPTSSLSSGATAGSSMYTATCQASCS

For `CCCCCCCCCCCCCCCC(=O)N[C@@H](CCC(=O)NCCCC[C@H](NC(=O)[C@H](CO)NC(=O)[C@@H]1CCCN1C(=O)[C@@H]1CCCN1C(=O)[C@@H]1CCCN1C(=O)[C@H](C)NC(=O)CNC(=O)[C@H](CO)NC(=O)[C@H](CO)NC(=O)[C@@H]1CCCN1C(=O)CNC(=O)CNC(=O)[C@H](C)NC(=O)[C@H](CC(C)C)NC(=O)[C@H](CC(C)C)NC(=O)[C@H](Cc1c[nH]c2ccccc12)NC(=O)[C@H](CC(N)=O)NC(=O)[C@@H](NC(=O)[C@H](Cc1ccccc1)NC(=O)[C@H](CCC(=O)O)NC(=O)C(C)(C)NC(=O)[C@H](C)NC(=O)[C@H](C)NC(=O)[C@H](CCC(N)=O)NC(=O)[C@H](CCCCN)NC(=O)[C@H](CC(=O)O)NC(=O)[C@H](CC(C)C)NC(=O)[C@H](Cc1ccc(O)cc1)NC(=O)[C@@H](NC(=O)[C@H](CO)NC(=O)[C@H](Cc1ccc(O)cc1)NC(=O)[C@H](CC(=O)O)NC(=O)[C@H](CO)NC(=O)[C@@H](NC(=O)[C@H](Cc1ccccc1)NC(=O)[C@@H](NC(=O)CNC(=O)[C@H](CCC(=O)O)NC(=O)CSCC(=O)NCCN1C(=O)SC(C)(C)C1=O)[C@@H](C)O)[C@@H](C)O)[C@@H](C)CC)C(C)C)C(N)=O)C(=O)O` [Compound 94], the EC50 (usually the concentration that produces a half-maximal response) at GIP-R (Table 3) is 1 to 10 nM; at GIP-R (Table 3A), 1 to 10 nM; at GLP-1R [1] (Table 3) it was 1 to 10 nM; on GLP-1R [1] (Table 3A), 1 to 10 nM; at GLP-1R [2] it was over 1000 nM. The Emax (as a rule, the maximal effect, on the per cent scale that the assay sets) at GIP-R (Table 3) stood at 46%; at GIP-R (Table 3A) it was 46%; on GLP-1R [1] (Table 3), 89%; at GLP-1R [1] (Table 3A), 89%.
With `CCCCCCCCCCCCCCCC(=O)N[C@@H](CCC(=O)NCCCC[C@H](NC(=O)[C@H](CO)NC(=O)[C@@H]1CCCN1C(=O)[C@@H]1CCCN1C(=O)[C@@H]1CCCN1C(=O)[C@H](C)NC(=O)CNC(=O)[C@H](CO)NC(=O)[C@H](CO)NC(=O)[C@@H]1CCCN1C(=O)CNC(=O)CNC(=O)[C@H](C)NC(=O)[C@H](CC(C)C)NC(=O)[C@H](CC(C)C)NC(=O)[C@H](Cc1c[nH]c2ccccc12)NC(=O)[C@H](CC(N)=O)NC(=O)[C@@H](NC(=O)[C@H](Cc1ccccc1)NC(=O)[C@H](CCC(=O)O)NC(=O)C(C)(C)NC(=O)[C@H](C)NC(=O)[C@H](C)NC(=O)[C@H](CCC(N)=O)NC(=O)[C@H](CCCCN)NC(=O)[C@H](CC(=O)O)NC(=O)[C@H](CC(C)C)NC(=O)[C@H](Cc1ccc(O)cc1)NC(=O)[C@@H](NC(=O)[C@H](CO)NC(=O)[C@H](Cc1ccc(O)cc1)NC(=O)[C@H](CC(=O)O)NC(=O)[C@H](CO)NC(=O)[C@@H](NC(=O)[C@H](Cc1ccccc1)NC(=O)[C@@H](NC(=O)CNC(=O)[C@H](CCC(=O)O)NC(=O)CSCC(=O)NCCN1C(=O)[C@H]2CC[C@H]2C1=O)[C@@H](C)O)[C@@H](C)O)[C@@H](C)CC)C(C)C)C(N)=O)C(=O)O` [Compound 97], the half-maximal effective concentration (EC50) on GIP-R (Table 3) is 0.1 to 1 nM; on GIP-R (Table 3A) it was 0.1 to 1 nM; at GLP-1R [1] (Table 3), 1 to 10 nM; on GLP-1R [1] (Table 3A), 1 to 10 nM; on GLP-1R [2] it was over 1000 nM. In addition, the Emax at GIP-R (Table 3) was found to be 93%; at GIP-R (Table 3A), 93%; on GLP-1R [1] (Table 3), 99%; at GLP-1R [1] (Table 3A), 99%.
With `CCCCCCCCCCCCCCCC(=O)N[C@@H](CCC(=O)NCCCC[C@H](NC(=O)[C@H](CO)NC(=O)[C@@H]1CCCN1C(=O)[C@@H]1CCCN1C(=O)[C@@H]1CCCN1C(=O)[C@H](C)NC(=O)CNC(=O)[C@H](CO)NC(=O)[C@H](CO)NC(=O)[C@@H]1CCCN1C(=O)CNC(=O)CNC(=O)[C@H](C)NC(=O)[C@H](CC(C)C)NC(=O)[C@H](CC(C)C)NC(=O)[C@H](Cc1c[nH]c2ccccc12)NC(=O)[C@H](CC(N)=O)NC(=O)[C@@H](NC(=O)[C@H](Cc1ccccc1)NC(=O)[C@H](CCC(=O)O)NC(=O)C(C)(C)NC(=O)[C@H](C)NC(=O)[C@H](C)NC(=O)[C@H](CCC(N)=O)NC(=O)[C@H](CCCCN)NC(=O)[C@H](CC(=O)O)NC(=O)[C@H](CC(C)C)NC(=O)[C@H](Cc1ccc(O)cc1)NC(=O)[C@@H](NC(=O)[C@H](CO)NC(=O)[C@H](Cc1ccc(O)cc1)NC(=O)[C@H](CC(=O)O)NC(=O)[C@H](CO)NC(=O)[C@@H](NC(=O)[C@H](Cc1ccccc1)NC(=O)[C@@H](NC(=O)CNC(=O)[C@H](CCC(=O)O)NC(=O)CSCC(=O)NCCN1C(=O)CC(C)(C)C1=O)[C@@H](C)O)[C@@H](C)O)[C@@H](C)CC)C(C)C)C(N)=O)C(=O)O` [Compound 104], the EC50 on GIP-R (Table 3) was 1 to 10 nM; at GIP-R (Table 3A), 1 to 10 nM; at GLP-1R [1] (Table 3), 1 to 10 nM; at GLP-1R [1] (Table 3A), 1 to 10 nM; at GLP-1R [2], over 1000 nM. Further, the Emax on GIP-R (Table 3) was in the range of 43 to 47%; at GIP-R (Table 3A), 43 to 47%; at GLP-1R [1] (Table 3), 104 to 106%; on GLP-1R [1] (Table 3A) it was 104 to 106%.
On to `CC[C@H](C)[C@H](NC(=O)[C@H](CO)NC(=O)[C@H](Cc1ccc(O)cc1)NC(=O)[C@H](CC(=O)O)NC(=O)[C@H](CO)NC(=O)[C@@H](NC(=O)[C@H](Cc1ccccc1)NC(=O)[C@@H](NC(=O)CNC(=O)[C@H](CCC(=O)O)NC(=O)CSCC(=O)NCCn1c(C)cc(C)cc1=O)[C@@H](C)O)[C@@H](C)O)C(=O)N[C@@H](Cc1ccc(O)cc1)C(=O)N[C@@H](CC(C)C)C(=O)N[C@@H](CC(=O)O)C(=O)N[C@@H](CCCCN)C(=O)N[C@@H](CCC(N)=O)C(=O)N[C@@H](C)C(=O)N[C@@H](C)C(=O)NC(C)(C)C(=O)N[C@@H](CCC(=O)O)C(=O)N[C@@H](Cc1ccccc1)C(=O)N[C@H](C(=O)N[C@@H](CC(N)=O)C(=O)N[C@@H](Cc1c[nH]c2ccccc12)C(=O)N[C@@H](CC(C)C)C(=O)N[C@@H](CC(C)C)C(=O)N[C@@H](C)C(=O)NCC(=O)NCC(=O)N1CCC[C@H]1C(=O)N[C@@H](CO)C(=O)N[C@@H](CO)C(=O)NCC(=O)N[C@@H](C)C(=O)N1CCC[C@H]1C(=O)N1CCC[C@H]1C(=O)N1CCC[C@H]1C(=O)N[C@@H](CO)C(=O)N[C@@H](CCCCN)C(N)=O)C(C)C` [Compound 111], for which the EC50 at GIP-R (Table 3) is 10 to 100 nM; on GIP-R (Table 3A), 100 to 1000 nM; at GLP-1R [1] (Table 3), 10 to 100 nM; at GLP-1R [1] (Table 3A), 10 to 100 nM; on GLP-1R [2] it was over 1000 nM. The Emax at 1 µM was determined as 12% on GIP-R (read-out: (Emax) GIP-R at 1 μM, Table 3) and 12% on GIP-R (read-out: (Emax) GIP-R at 1 μM, Table 3A). Further, the Emax on GLP-1R [1] (Table 3) and on GLP-1R [1] (Table 3A) was 94% each time.
Consider `CC[C@H](C)[C@H](NC(=O)[C@H](CO)NC(=O)[C@H](Cc1ccc(O)cc1)NC(=O)[C@H](CC(=O)O)NC(=O)[C@H](CO)NC(=O)[C@@H](NC(=O)[C@H](Cc1ccccc1)NC(=O)[C@@H](NC(=O)CNC(=O)[C@H](CCC(=O)O)NC(=O)C(C)(C)C(=O)NCCn1ncc2ccccc2c1=O)[C@@H](C)O)[C@@H](C)O)C(=O)N[C@@H](Cc1ccc(O)cc1)C(=O)N[C@@H](CC(C)C)C(=O)N[C@@H](CC(=O)O)C(=O)N[C@@H](CCCCN)C(=O)N[C@@H](CCC(N)=O)C(=O)N[C@@H](C)C(=O)N[C@@H](C)C(=O)NC(C)(C)C(=O)N[C@@H](CCC(=O)O)C(=O)N[C@@H](Cc1ccccc1)C(=O)N[C@H](C(=O)N[C@@H](CC(N)=O)C(=O)N[C@@H](Cc1c[nH]c2ccccc12)C(=O)N[C@@H](CC(C)C)C(=O)N[C@@H](CC(C)C)C(=O)N[C@@H](C)C(=O)NCC(=O)NCC(=O)N1CCC[C@H]1C(=O)N[C@@H](CO)C(=O)N[C@@H](CO)C(=O)NCC(=O)N[C@@H](C)C(=O)N1CCC[C@H]1C(=O)N1CCC[C@H]1C(=O)N1CCC[C@H]1C(=O)N[C@@H](CO)C(=O)N[C@@H](CCCCN)C(N)=O)C(C)C` [Compound 116], for which the EC50 at GIP-R (Table 3) was 10 to 100 nM; on GIP-R (Table 3A) it was 10 to 100 nM; on GLP-1R [1] (Table 3), under 0.1 nM; on GLP-1R [1] (Table 3A) it was under 0.1 nM; on GLP-1R [2] it was over 1000 nM. Further, the Emax at GIP-R (Table 3) was 50%; on GIP-R (Table 3A) it was 50%; on GLP-1R [1] (Table 3), 98%; at GLP-1R [1] (Table 3A) it was 98%.
